Experimental data published in US20230340061A1, “PEPTIDES AND METHODS FOR THE TREATMENT OF MULTIPLE SCLEROSIS” (IMCYSE SA, priority 2020, published 2023).

Key:
[1] = system: CD4+ T cells of patients with multiple sclerosis; experiment: Cytokine secretion in CD4+ T cell culture supernatants (LEGENDplex Human Th Panel); format: cell-based; conditions: for specific secretion of cytokine (IL-5): culture supernatant of MS017 (S15) CD4+ cell line, P4 vs C-WT epitope peptides
Description: (§1) Naïve CD4+ T cells were also purified from the CD14- PBMCs fraction by performing negative immunomagnetic separation with naïve CD4+ T cell isolation kit (Miltenyi Biotec, 130-094-131) according to the supplier recommendations. Naïve CD4+ T cells were co-cultured with autologous mDC or LCL in the presence of P2 and P4 peptides. The CD4+ T cells were re-stimulated periodically, about every 10-12 days.
The ability of the peptides to induce cytokines secretion in CD4+ T cells culture supernatants was evaluated by flow cytometry analysis after overnight co-culture at resting state with autologous mDC without (no peptide) or with the peptides (P2 or P4). Supernatants were analyzed with the LEGENDplex Human Th Panel (13-plex) (BioLegend, 740721) according to the supplier recommendations.

[2] = system: CD4+ T cells of patients with multiple sclerosis; experiment: Generation of antigen specific CD4+ T cells, CD154 (CD40L) expression by flow cytometry; format: cell-based, human
Description: PBMCs were isolated from blood samples of patients with multiple sclerosis treated by dimethyl fumarate (DMF) on Lymphoprep density gradients.
CD14+ monocytes were isolated from these PBMCs by performing positive immunomagnetic separation with CD14 microbeads (Miltenyi Biotec, 130-050-201) according to the supplier recommendations. CD14+ monocytes were cultured for six days and maturated to generate autologous dendritic cells (mDC). CD19+ B cells were isolated from the CD14- PBMCs fraction by performing positive immunomagnetic separation with CD19 microbeads (Miltenyi Biotec, 130-050-301) according to the supplier recommendations. CD19+ B cells were cultured and immortalized with EBV to generate autologous lymphoblastoid cell lines (LCL).
as §1
The ability of the peptides to generate antigen specific CD4+ T cells was evaluated by flow cytometry analysis of the TCR induced surface activation marker CD154 (CD40L) expression after overnight co-culture at resting state with autologous LCL without (no peptide) or with the peptides (P2 or P4). The surface expression of the lytic marker Fas ligand (CD178) was also evaluated by flow cytometry analysis after overnight co-culture at resting state with autologous LCL without (no peptide) or with the peptide (P4).

[3] = Oxidoreductase activity, fluorescent assay with FITC labelled peptides; format: biochemical; conditions: reduction of self-quenched FITC labelled peptides, fluorescence
Description: The peptides of the invention comprise an MHC class II T-cell epitope or NKT cell epitope of MOG with a potential to trigger an immune reaction, and a modified oxidoreductase motif. The reducing activity of the motif sequence in the peptide can be assayed for its ability to reduce a sulfhydryl group such as in the insulin solubility assay wherein the solubility of insulin is altered upon reduction, or with a fluorescence-labelled substrate such as insulin. An example of such assay uses a fluorescent peptide and is described in Tomazzolli et al. (2006) Anal. Biochem. 350, 105-112. Two peptides with a FITC label become self-quenching when they covalently attached to each other via a disulfide bridge. Upon reduction by a peptide in accordance with the present invention, the reduced individual peptides become fluorescent again.
The oxidoreductase activity of the immunogenic peptides is determined using a fluorescent assay described in Tomazzolli et al. (2006) Anal. Biochem. 350, 105-112. Two peptides with a FITC label become self-quenching when they form a covalent disulfide bond. Upon reduction by a peptide in accordance with the present invention, the reduced individual FITC labelled peptides emit fluorescence again. The activity is expressed as the mean of duplicates. The results are expressed in Relative Fluorescent Units (RFU). […]

[4] = system: Experimental Auto-Immune Encephalomyelitis (EAE); experiment: Prophylactic administration in adoptive-transfer EAE; format: in vivo, mice; conditions: 100 μg s.c. with alum, days −21, −14, −7, +2, +9
Description: EAE was induced in recipient mice by immunizing donor B6.SJL mice with MOG35-55/CFA, and then, 11 days later, by taking their spleens and restimulating them in culture with MOG35-55 peptide for 3 days. Those cells, now fully encephalitogenic, were injected on Day 0 into recipient groups of mice, which developed EAE.
B6.SJL donor mice were acclimated for 13 days before the start of the study and were 9 weeks old at the time of immunization. Donor mice were used to generate encephalitogenic cells as follows: • Day −14: Immunization with MOG35-55/CFA. • Day −3: Spleen harvest. Mice were euthanized and spleens were harvested, pooled and cell suspension prepared. Cell suspension, at 4 to 5 million cells/mL in T150 flasks, were set up in cultures in the presence of MOG35-55 peptide (20 μg/mL), IL-12 ([…]) and anti-IFNγ (7 μg/mL) for 3 days to generate encephalitogenic T cells. • Day 0: Cell collection and transfer. Cells were collected and spun down, resuspended in RPM11640 (no FCS), counted, and injected into recipient mice at 10 million cells per mouse.
Recipient mice were acclimated for 6 days prior to the first injection and were 6 weeks old when treatment started (on Day −21). Mice were assigned to groups in a balanced manner, to achieve similar average weight across the groups at the start of the study.
Dosing of all mice was performed once on each of the days indicated in Table 4, s.c., at a volume of 0.05 mL/site, each mouse receiving injection at two sites, for a total of 0.1 mL/mouse/dosing day, corresponding to 100 μg of peptide.
For Vehicle treatment, Imject™ Alum solution was prepared at each dosing day. IMCY-0189 has the sequence described in example 6. Lyophilized IMCY-0189 was thawed at room temperature for 10 minutes, resuspended in Na Acetate buffer 50 mM pH 5.4 and incubated at room temperature for 5 minutes. Reconstituted peptide was then mixed with Imject™ Alum Adjuvant before injection.
At termination, blood was collected from all mice into tubes containing K2EDTA and mixed gently. Blood was then centrifuged at ˜10000 g for 5 minutes. Plasma was transferred into Eppendorf tubes and stored at −80° C. until shipment to Quanterix™. Plasma Neurofilament light (NF-L) protein levels were quantified using Simoa© NF-light Advantage kit as described in example 6.
EAE scoring, terminal collection, histology analyses and statistical analyses were performed as described in example 6.

[5] = system: Experimental Auto-Immune Encephalomyelitis (EAE); experiment: Therapeutic administration in MOG35-55-induced EAE; format: in vivo; conditions: 30 μg s.c. with alum, days 4, 9, 14, 19
Description: The study used a total of 48 female C57BL/6 mice (Taconic Biosciences, 9 weeks old on Day 0). Mice were acclimated for 7 days prior to the first injection. Mice were assigned to groups in a balanced manner to achieve similar average weight across the groups at the start of the study.
Dosing of all mice was performed once on each of the days indicated in Table 2, s.c., at a volume of 0.05 mL/site, each mouse receiving injection at two sites, for a total of 0.1 mL/mouse/dosing day. IMCY-0189 or P4 peptide total dose was 30 μg per administration.
Lyophilized immunogenic peptide IMCY-0189 with the sequence […] (SEQ ID NO: 260), comprising an oxidoreductase motif HCPYC (SEQ ID NO: 24), a linker GW, a murine Myelin Oligodendrocyte Glycoprotein (MOG35-55) MHCII T cell epitope […] (SEQ ID NO: 261) and a flanking sequence HLYR (SEQ ID NO: 262) (Smart Bioscience) was solubilized immediately before use. Lyophilized IMCY-0189 was thawed at room temperature for 10 minutes, resuspended in Na Acetate buffer 50 mM NaCl 0.9% pH 5.4 and incubated at room temperature for 10 minutes. Reconstituted peptide was then mixed with Imject™ Alum Adjuvant before injection.
Lyophilized immunogenic peptide P4 with the sequence […] (SEQ ID NO: 27), comprising an oxidoreductase motif KHCPYC (SEQ ID NO: 50), a linker VRY, a human Myelin Oligodendrocyte Glycoprotein (MOG201-212) MHCII T cell epitope […] (SEQ ID NO: 2) and a flanking sequence TLFKK (SEQ ID NO: 263) (Smart Bioscience) was solubilized immediately before use. Lyophilized P4 was thawed at room temperature for 10 minutes, resuspended in Na Acetate buffer 50 mM NaCl 0.9% pH 5.4 and incubated at room temperature for 10 minutes. Reconstituted peptide was then mixed with Imject™ Alum Adjuvant before injection.
EAE was induced in all mice as follows: • Day 0, Hour 0—Immunization with a peptide corresponding to the amino acids 35-55 of MOG (MOG35-55)/CFA • Day 0, Hour 2—Injection of pertussis toxin • Day 1, Hour 0—2nd injection of pertussis toxin (24 hours after initial immunization).
Mice were injected subcutaneously at two sites in the back with the emulsion component (containing MOG35-55) of Hooke Kit™ MOG35-55/CFA Emulsion PTX, catalog number EK-2110 (lot #131, Hooke Laboratories, Lawrence MA). One site of injection was in the area of upper back, approximately 1 cm caudal of the neck line. The second site was in the area of lower back, approximately 2 cm cranial of the base of the tail. The injection volume was 0.1 mL at each site. Each mouse received 200 μg of MOG35-55.
Within 2 hours of the injection of emulsion, and then again 24 hours after the injection of emulsion, the pertussis toxin component of the kit was administered intraperitoneally. The pertussis toxin (lot #1008, Hooke Laboratories) was administered at 90 ng/dose for both injections and the volume of each injection was 0.1 mL.
Animals were scored daily starting from Day 7 to the end of the study. Scoring was performed blind, by a person unaware of both treatment and of previous scores for each mouse. In-between scores were assigned when the clinical signs fell between two above defined scores.
On Day 28, blood was collected from all mice into gel clot activator tubes and allowed to clot at room temperature for ˜30 minutes. Blood is then centrifuged at ˜10000 g for 5 minutes. Serum was transferred into Eppendorf tubes and stored at −80° C. until shipment to Quanterix™. Serum Neurofilament light (NF-L) protein levels were quantified using Simoa® NF-light Advantage kit, a digital immunoassay for the quantitative determination of NF-L in serum, plasma and CSF. The used antibodies (Uman Diagnostics, Umea Sweden) also cross react with murine, bovine and macaque NF-L epitopes and as such, this assay can be used for research with these species. All samples were tested in duplicate at a dilution factor of 40×. […]

[6] = biological target: T1, soluble HLA-DRB1*04:01 human MHC II protein (human); experiment: soluble-phase competition vs biotin-tagged control peptide, Eu3+-streptavidin fluorescence (FIG. 3)
T1 construct: Soluble protein purchased from the Benaroya Research Institute; also called HLA-DR4; DR4
Description: To test the binding of the immunogenic peptides to MHCII molecules, a soluble phase competition assay is performed. […] As binding approaches its equilibrium (18h), biotin-labelled peptide/MHC II complexes are captured, separated from unbound reagents, and quantitatively detected by time-resolved fluorescence (Eu³⁺ streptavidin, Perkin Elmer, Brussels, Belgium). […] Data are processed and plotted to ascertain dose-dependent binding properties of test peptides. All the tests are performed in triplicates.

[7] = biological target: T2, soluble HLA-DRB1*03:01 human MHC II protein (human); experiment: soluble-phase competition vs biotin-labelled control peptide, Eu3+-streptavidin time-resolved fluorescence
T2 construct: Soluble protein purchased from the Benaroya Research Institute; also called HLA-DR3; DR3

HCPYCVRYFLRVPSWKITLF [P2]
specific secretion of cytokines (IL-5 and IL-13) ([1]; culture supernatant of MS026 CD4+ cell line (S11)): specific secretion | generation of peptide-specific CD4+ T cell lines from MS patients ([2]; naive CD4+ T cells co-cultured with autologous mDC or LCL in presence of peptide): able to generate P2-specific CD4+ T cell lines from four different MS patients | frequency of effector cells (CD3+CD4+CD154+) ([2]; patients' CD4+ cell lines, overnight co-culture with autologous LCL with peptide vs no peptide): high frequency

DPHFLRVPCWKITLFKK [short C-WT, reference compound]
specific secretion of cytokine (IL-5) [1]: specific secretion | specific induction of effector cells (CD3+CD4+CD154+) ([2]; P4-specific CD4+ cell lines of patients MS017 (S14) and MS026 (S13), overnight co-culture): specific induction

HCPYCGG-FLRVPCWKI [P7]
oxidoreductase activity [3]: displayed oxidoreductase activity

QYRLRGKLRAEIENLHRTFDPHFLRVPCWKITLFVIVPVLGP [long C-WT, reference compound]
specific secretion of cytokine (IL-5) [1]: specific secretion

HCPYCGWYRSPFSRVVHLYR [IMCY-0189]
mortality [4]: No mice died | AUC (area under the curve) of EAE scores ([4]; vs Alum group): statistically significantly improved | MMS (mean maximal score) ([4]; vs Alum group): statistically significantly improved | disease onset ([4]; vs Alum group): statistically significantly improved | end score ([4]; vs Alum group): statistically significantly improved | level of demyelination (anti-MBP stained spinal cord sections) ([4]; vs Alum group): statistically significantly reduced level | level of inflammation (inflammatory foci, H&E stained spinal cord sections) ([4]; vs Alum group): statistically significantly reduced level | plasma NF-L levels ([4]; at termination, vs Alum group): statistically significantly reduced | mortality ([5]; to day 28): No mice died | AUC (area under the curve) of EAE scores ([5]; vs Saline group): statistically significant reduced | MMS (mean maximal score) ([5]; vs Saline group): statistically significant reduced | disease onset ([5]; vs Saline group): postponed | level of demyelination (anti-MBP stained spinal cord sections) ([5]; vs Saline group): statistically significantly reduced level | level of inflammation (inflammatory foci, H&E stained spinal cord sections) ([5]; vs Saline group): statistically significantly reduced level | serum NF-L levels ([5]; Day 28, vs Saline group): statistically significant reduced | end score ([5]; EAE score 0-5, vs Saline group): reduced

HCPYCVRYFLRVPSWKITLF (Synthetic) [P2 peptide HCPYCVRYFLRVPSWKITLF]
binding result [6]: binds | binding result [7]: binds
